The values below come from ChEMBL document CHEMBL5727469, “Inhibitors of the renal outer medullary potassium channel” (2019).

One may read the IC50 as the concentration at which inhibition is half-maximal.

Each structure is given as a SMILES string.

The assay addresses T1, ATP-sensitive inward rectifier potassium channel 1 (Homo sapiens, UniProt P48048).
T1 sequence (P48048 whole entry): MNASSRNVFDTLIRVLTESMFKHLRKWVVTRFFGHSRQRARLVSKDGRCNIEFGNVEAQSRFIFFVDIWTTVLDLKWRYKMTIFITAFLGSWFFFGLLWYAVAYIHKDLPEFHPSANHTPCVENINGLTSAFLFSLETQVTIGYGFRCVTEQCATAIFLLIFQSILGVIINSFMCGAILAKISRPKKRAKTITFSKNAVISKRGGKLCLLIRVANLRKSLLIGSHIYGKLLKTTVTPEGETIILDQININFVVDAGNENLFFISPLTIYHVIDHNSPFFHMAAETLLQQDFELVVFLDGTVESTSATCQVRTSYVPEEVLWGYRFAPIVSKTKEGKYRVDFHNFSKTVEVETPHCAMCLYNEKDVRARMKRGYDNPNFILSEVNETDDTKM
The assay can be described thus: Thallium Flux Assay: 1. Seed HEK-hKir1.1 cells (50 μl at 20,000 cells/well) in 384-well PDL coated Microplates2. Allow cells to adhere overnight in humidified 37° C./10% CO2 incubator3. Completely remove cell growth media from microplate and replace with 25 μl loading buffer4. Incubate Microplate at room temperature, protected form light, for 90 min5. Remove loading buffer and replace with 25 μl 1× Assay Buffer±test compound.6. Incubate microplate at room temperature, protected from light, for 30 min7. At FLIPR-Tetra 384: Add stimulant (Thallium/Potassium) solution to microplate and monitor fluorescence. Excitation=400 nm, Emission=460 & 580 nm. Collect data for ˜10 min.Data Calculation—The fluorescence intensity of wells containing 3 μM of a standard control ROMK inhibitor of the present invention is used to define the ROMK-sensitive component of thallium flux. Fluorescence in the presence of test compounds is normalized to control values to provide % fluorescence change. IC50 values represent the concentration of compound that inhibits 50% of the ROMK thallium flux signal.
`CC1=C(N2CCOC3(CCN(CC(O)c4ccc(-n5cnnn5)nc4C)CC3)C2)CCC1=O` (stereo not given): the IC50 was 157 nM.
For `CC1=C(N2CCOC3(CCN(C[C@H](O)c4ccc5c(c4C)COC5=O)CC3)C2)CCC1=O`, the IC50 is 796 nM.
As to `CC1=C(N2CCOC3(CCN(C[C@H](O)c4ccc(-n5cnnn5)nc4)CC3)C2)CCC1=O`, the IC50 is 167 nM.
For the compound `CC1=C(N2CCOC3(CCN(CC(O)c4ccc(-n5cnnn5)cc4C)CC3)C2)CCC1=O` (stereo not given), the IC50 was 285 nM.
As for `CC1=C(N2CCC3(CCN(CC(O)c4ccc(-n5cnnn5)nc4C)CC3)C2=O)CCC1=O` (single isomer, unassigned), the figure is 842 nM.
